# Data: patent EP3227262B1, “SULFIDE ALKYL AND PYRIDYL REVERSE SULFONAMIDE COMPOUNDS FOR HBV TREATMENT” (Novira Therapeutics Inc., priority 2014, dated 2016)
# Test system: HBV
# Test: Inhibition of HBV replication dot-blot assay in HBV-producing hepatoma cell line
# Type: cell-based
# Conditions: Hepatitis B virus, 144 h; activity in Dot-Blot assay; HepG2-2.2.15 cells; reduction in HBV DNA levels, six days
# Experimental: Compounds active in the HBV assembly assay are tested for their activity and toxicity in cellular assay. In the first anti-viral assay, the ability of compounds to inhibit HBV replication in an HBV-producing hepatoma cell line using the dot-blot method is evaluated.
# (§1) Briefly, confluent monolayers of HepG2-2.2.15 cells are incubated with complete medium containing various concentrations of a test compound. Three days later, the culture medium is replaced with fresh medium containing the appropriately diluted test compound. Six days following the initial administration of the test compound, the cell culture supernatant is collected, and cell lysis is performed. The samples are applied onto Nylos membranes and DNA is immobilized to the membrane by UV cross-linking. After pre-hybridization, the HBV probe is added and the hybridization is performed overnight. The membranes are exposed to the KODAK films; antiviral activity is calculated from the reduction in HBV DNA levels (EC50). The EC50 for antiviral activity is calculated from the dose response curves of active compounds. Assay performance over time is monitored by the use of the standard positive control compounds ETV, BAY 41-4109, and HAP-1.
# Selected compounds are tested for their activity and toxicity in cellular assay. In the first anti-viral assay, the ability of compounds to inhibit HBV replication in an HBV-producing hepatoma cell line using the dot-blot method is evaluated.
# as §1, with “Confluent monolayers” for “Briefly, confluent monolayers”, “lysis was” for “lysis is”
row,Compound,EC50 [µM]
1,"O=C(Nc1ccc(F)c(Cl)c1)c1ccc(F)c(SC2CCCCC2F)c1 (racemic) [Compound 72, (±)-N-(3-Chloro-4-fluorophenyl)-4-fluoro-3-((2-fluorocyclohexyl)thio)benzamide]",< 10
2,"O=C(Nc1ccc(F)c(Cl)c1)c1ccc(F)c(SC2COC2)c1 [Compound 65, N-(3-Chloro-4-fluorophenyl)-4-fluoro-3-(oxetan-3-ylthio)benzamide]",< 10
3,"O=C(Nc1cc(F)c(F)c(F)c1)c1ccc(F)c(SCCO)c1 [Compound 7, 4-Fluoro-3-((2-hydroxyethyl)thio)-N-(3,4,5-trifluorophenyl)benzamide]",< 10
4,"COCC(C)S(=O)(=O)Nc1cccc(C(=O)Nc2ccc(F)c(Cl)c2)c1 (racemic) [Compound 204, (±)-N-(3-chloro-4-fluorophenyl)-3-(2-methoxy-1-methylethylsulfonamido)benzamide]",< 10
5,"O=C(Nc1ccc(F)c(Cl)c1)c1ccc(F)c(SCC2CCOC2)c1 (racemic) [Compound 46, (±)-N-(3-Chloro-4-fluorophenyl)-4-fluoro-3-(((tetrahydrofuran-3-yl)methyl)thio)benzamide]",< 10
6,"O=C1CCC(Sc2cc(C(=O)Nc3ccc(F)c(Cl)c3)ccc2F)C1 (racemic) [Compound 22, (±)-N-(3-Chloro-4-fluorophenyl)-4-fluoro-3-((3-oxocyclopentyl)thio)benzamide]",< 10
7,"O=C(Nc1cc(F)c(F)c(F)c1)c1ccc(Cl)c(SC2CCC(O)CC2)c1 (mixture of isomers) [Compound 81, (cis/trans)-4-Chloro-3-((4-hydroxycyclohexyl)thio)-N-(3,4,5-trifluorophenyl)benzamide]",< 10
8,"Cc1cc(NC(=O)c2ccc(F)c(SC3CCCCC3)c2)ccc1F [Compound 8, 3-(Cyclohexylthio)-4-fluoro-N-(4-fluoro-3-methylphenyl)benzamide]",< 10
9,"CC(C)(C)CS(=O)(=O)Nc1cc(C(=O)Nc2ccc(F)c(Cl)c2)ccn1 [Compound 164, N-(3-Chloro-4-fluorophenyl)-2-(2,2-dimethylpropylsulfonamido)isonicotinamide]",< 10
10,"COc1ccc(CCS(=O)(=O)Nc2cc(C(=O)Nc3ccc(F)c(Cl)c3)ccn2)cc1 [Compound 173, N-(3-Chloro-4-fluorophenyl)-2-(2-(4-methoxyphenyl)ethylsulfonamido)isonicotinamide]",< 10
11,"O=C(Nc1ccc(F)c(Cl)c1)c1cccc(NS(=O)(=O)c2cn[nH]c2)c1 [Compound 200, N-(3-chloro-4-fluorophenyl)-3-(1H-pyrazole-4-sulfonamido)benzamide]",< 10
12,"O=C(Nc1ccc(F)c(Cl)c1)c1cc(NS(=O)(=O)C2CC2)ncc1F [Compound 144, N-(3-Chloro-4-fluorophenyl)-2-(cyclopropanesulfonamido)-5-fluoroisonicotinamide]",< 10
13,"O=C(Nc1ccc(F)c(Cl)c1)c1ccnc(NS(=O)(=O)C2CCCCC2)c1 [Compound 134, N-(3-Chloro-4-fluorophenyl)-2-(cyclohexanesulfonamido)isonicotinamide]",< 10
14,"CN(C)C(=O)C1CCC(Sc2cc(C(=O)Nc3cc(F)c(F)c(F)c3)ccc2F)CC1 (mixture of isomers) [Compound 103, (cis/trans)-3-((4-(Dimethylcarbamoyl)cyclohexyl)thio)-4-fluoro-N-(3,4,5-trifluorophenyl)benzamide]",< 10
15,"COCCS(=O)(=O)Nc1cccc(C(=O)Nc2ccc(F)c(Cl)c2)c1 [Compound 198, N-(3-chloro-4-fluorophenyl)-3-(2-methoxyethylsulfonamido)benzamide]",< 10
16,"O=C(Nc1cc(F)c(F)c(F)c1)c1ccc(F)c(SCCCCO)c1 [Compound 23, 4-Fluoro-3-((4-hydroxybutyl)thio)-N-(3,4,5-trifluorophenyl)benzamide]",< 10
17,"COc1ccc(C(=O)Nc2ccc(F)c(F)c2)cc1SC1CCCCC1 [Compound 80, 3-(Cyclohexylthio)-N-(3,4-difluorophenyl)-4-methoxybenzamide]",< 10
18,"CC(C)(O)CCSc1cc(C(=O)Nc2cc(F)c(F)c(F)c2)ccc1F [Compound 19, 4-Fluoro-3-((3-hydroxy-3-methylbutyl)thio)-N-(3,4,5-trifluorophenyl)benzamide]",< 10

row,Compound,EC50 [µM]
1,"O=C1CCCC(Sc2cc(C(=O)Nc3ccc(F)c(Cl)c3)ccc2F)C1 (racemic) [Compound 20, (±)N-(3-Chloro-4-fluorophenyl)-4-fluoro-3-((3-oxocyclohexyl)thio)benzamide]",< 10
2,"O=C(Nc1ccc(F)c(Cl)c1)c1cc(F)nc(NS(=O)(=O)c2ccccc2)c1 [Compound 138, N-(3-Chloro-4-fluorophenyl)-2-fluoro-6-(phenylsulfonamido)isonicotinamide]",< 10
3,"O=C(O)CC1CCC(Sc2cc(C(=O)Nc3ccc(F)c(F)c3)ccc2F)C1 (racemic) [Compound 105, (±)-2-(3-((5-((3,4-Difluorophenyl)carbamoyl)-2-fluorophenyl)thio)cyclopentyl)acetic acid]",< 10
4,"O=C(Nc1ccc(F)c(Cl)c1)c1cccc(SC2CCC(O)CC2)c1 (mixture of isomers) [Compound 34, (cis/trans)-N-(3-Chloro-4-fluorophenyl)-3-((4-hydroxycyclohexyl)thio)benzamide]",< 10
5,"O=C(O)CC1CCC(Sc2cc(C(=O)Nc3cc(F)c(F)c(F)c3)ccc2F)C1 (racemic) [Compound 101, (±)-2-(3-((2-Fluoro-5-((3,4,5-trifluorophenyl)carbamoyl)phenyl)thio)cyclopentyl)acetic acid]",< 10
6,"O=C1CCCCC(Sc2cc(C(=O)Nc3cc(F)c(F)c(F)c3)ccc2F)C1 (racemic) [Compound 12, (±)-4-Fluoro-3-((3-oxocydoheptyl)thio)-N-(3,4,5-trifluorophenyl)benzamide]",< 10
7,"N#Cc1ccc(C(=O)Nc2ccc(F)c(Cl)c2)cc1SC1CCC(O)CC1 (mixture of isomers) [Compound 95, (cis/trans)-N-(3-Chloro-4-fluorophenyl)-4-cyano-3-((4-hydroxycyclohexyl)thio)benzamide]",< 10
8,"O=C(Nc1ccc(F)c(Cl)c1)c1ccc(F)c(SCCCO)c1 [Compound 27, N-(3-Chloro-4-fluorophenyl)-4-fluoro-3-((3-hydroxypropyl)thio)benzamide]",< 10
9,"O=C(Nc1ccc(F)c(F)c1)c1ccc(Cl)c(SC2CCC(O)CC2)c1 (mixture of isomers) [Compound 87, (cis/trans)-4-Chloro-N-(3,4-difluorophenyl)-3-((4-hydroxycyclohexyl)thio)benzamide]",< 10
10,"CC(C)(O)CS(=O)(=O)Nc1cc(C(=O)Nc2ccc(F)c(Cl)c2)ccn1 [Compound 156, N-(3-Chloro-4-fluorophenyl)-2-(2-hydroxy-2-methylpropylsulfonamido) isonicotinamide]",< 10
11,"O=C(Nc1ccc(F)c(Cl)c1)c1ccnc(NS(=O)(=O)CC2CCCC2)c1 [Compound 150, N-(3-Chloro-4-fluorophenyl)-2-(cyclopentylmethylsulfonamido)isonicotinamide]",< 10
12,"O=C(O)CC1CCC(Sc2cc(C(=O)Nc3ccc(F)c(Cl)c3)ccc2F)CC1 (mixture of isomers) [Compound 106, (cis/trans)-2-(4-((5-((3-Chloro-4-fluorophenyl)carbamoyl)-2-fluorophenyl)thio)cyclohexyl)acetic acid]",< 10
13,"CC(C)S(=O)(=O)Nc1cc(C(=O)Nc2ccc(F)c(F)c2)ccn1 [Compound 165, N-(3,4-Difluorophenyl)-2-(1-methylethylsulfonamido)isonicotinamide]",< 10
14,"Cc1ccc(C(=O)Nc2cc(F)c(F)c(F)c2)cc1SC1CCC(O)CC1 (mixture of isomers) [Compound 77, (cis/trans)-3-((4-Hydroxycyclohexyl)thio)-4-methyl-N-(3,4,5-trifluorophenyl)benzamide]",< 10
15,"O=C(Nc1cc(F)c(F)c(F)c1)c1ccc(F)c(S[C@H]2CCCC[C@@H](O)C2)c1 (racemic) [Compound 14A, (±)-4-Fluoro-3-(((1S,3R)-3-hydroxycycloheptyl)thio)-N-(3,4,5-trifluorophenyl)benzamide]",< 10
16,"O=C(Nc1ccc(F)c(Cl)c1)c1cccc(NS(=O)(=O)C2CS(=O)(=O)CC2O)c1 (racemic) [Compound 206, (±)-N-(3-chloro-4-fluorophenyl)-3-(4-hydroxy-1,1-dioxidotetrahydrothiophene-3-sulfonamido)benzamide]",< 10
17,"O=C(Nc1cc(F)c(F)c(F)c1)c1c[nH]c(=O)c(SC2CCCC2)c1 [Compound 48, 5-(Cyclopentylthio)-6-oxo-N-(3,4,5-trifluorophenyl)-1,6-dihydropyridine-3-carboxamide]",< 10
